Measured values from the supplement of paper PMC11208160.

Assay: recombinant UMI read abundance after kanamycin selection (control-corrected) (log10(CPM+1)); higher = more efficient recombination; extreme values may be limits of the assay; sequences stand for … in AGTGCAGAGAAAATCGGCCAGTTTTCTCTGCCTGCAGTCCGCATGCCGTGGGACCCCTTGGGTTCTAACCTGTTGCCTAGATTTATGCAGCGGACTGCCTTTCTCCCAAAGTGATAAACCGG…AGGTTGGTTTCACT; site = the 11-nt donor
In short: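 Under IPTG (0.07 mM) plus kanamycin, or without selection, Escherichia coli carrying a UMI-tagged donor and donor-binding-loop pair library and a target plasmid for the IS621 bridge recombinase were plated in two replicates. Recombinant UMIs were PCR-amplified across the donor–target junction and sequenced. Counts were converted to CPM, averaged over replicates, scaled by control-derived factors and reported as log10(CPM+1).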
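Further: IS621 bridge recombinase in Escherichia coli cells against a fixed T5 target plasmid.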

Sequence | recombinant UMI read abundance (log10)
CTGCGTACATGGACCGGTTTTCCCGGTAATCCGTATTTGAT (site CTGCGTACTAT) | 1.81
CTGCGTTCATGGACCGGTTTTCCCGGTAATCCGTATTTGAG (site CTGCGTTCTCT) | 2.26
CTGCTAACATGGACCGGTTTTCCCGGTAATCCGTATTTGCT (site CTGCTAACTAG) | 2.26
CTGCTAACATGGACCGGTTTTCCCGGTAATCCGTATTTGCT (site CTGCTACCTAG) | 0
CTGCTAACATGGACCGGTTTTCCCGGTAATCCGTATTTGCT (site CTGCTAGCTAG) | 0.313
CTGCTAACATGGACCGGTTTTCCCGGTAATCCGTATTTGCT (site CTGCTATCTAG) | 0.474
CTGCTACCATGGACCGGTTTTCCCGGTAATCCGTATTTGCA (site CTGCTACCTAG) | 0.00394
CTGCTACCATGGACCGGTTTTCCCGGTAATCCGTATTTGCA (site CTGCTACCTCG) | 0.00238
CTGCTACCATGGACCGGTTTTCCCGGTAATCCGTATTTGCA (site CTGCTACCTGG) | 0
CTGCTACCATGGACCGGTTTTCCCGGTAATCCGTATTTGCA (site CTGCTACCTTG) | 0
CTGCTACCATGGACCGGTTTTCCCGGTAATCCGTATTTGGG (site CTGCTACCTCC) | 0.0335
CTGCTACCATGGACCGGTTTTCCCGGTAATCCGTATTTGGT (site CTGCTACCTAA) | 0.00859
CTGCTACCATGGACCGGTTTTCCCGGTAATCCGTATTTGGT (site CTGCTACCTAC) | 0.00854
CTGCTACCATGGACCGGTTTTCCCGGTAATCCGTATTTGGT (site CTGCTACCTAG) | 0
CTGCTACCATGGACCGGTTTTCCCGGTAATCCGTATTTGGT (site CTGCTACCTAT) | 0.00703
CTGCTGACATGGACCGGTTTTCCCGGTAATCCGTATTTGAT (site CTGCTGACTAT) | 2.13
CTGCTTCCATGGACCGGTTTTCCCGGTAATCCGTATTTGGT (site CTGCTTCCTAC) | 0.0707
CTGGAAACATGGACCGGTTTTCCCGGTAATCCGTATTTGAA (site CTGGAAACTTA) | 0.0938
CTGGAAACATGGACCGGTTTTCCCGGTAATCCGTATTTGAA (site CTGGAAACTTC) | 0.988

Sequence | recombinant UMI read abundance (log10)
CTGGAAACATGGACCGGTTTTCCCGGTAATCCGTATTTGAA (site CTGGAAACTTG) | 0
CTGGAAACATGGACCGGTTTTCCCGGTAATCCGTATTTGAA (site CTGGAAACTTT) | 2.09
CTGGAAACATGGACCGGTTTTCCCGGTAATCCGTATTTGCA (site ATGGAAACTTG) | 0
CTGGAAACATGGACCGGTTTTCCCGGTAATCCGTATTTGCA (site CAGGAAACTTG) | 1.85
CTGGAAACATGGACCGGTTTTCCCGGTAATCCGTATTTGCA (site CCGGAAACTTG) | 1.93
CTGGAAACATGGACCGGTTTTCCCGGTAATCCGTATTTGCA (site CGGGAAACTTG) | 0
CTGGAAACATGGACCGGTTTTCCCGGTAATCCGTATTTGCA (site CTAGAAACTTG) | 2.19
CTGGAAACATGGACCGGTTTTCCCGGTAATCCGTATTTGCA (site CTCGAAACTTG) | 0
CTGGAAACATGGACCGGTTTTCCCGGTAATCCGTATTTGCA (site CTGAAAACTTG) | 0.744
CTGGAAACATGGACCGGTTTTCCCGGTAATCCGTATTTGCA (site CTGCAAACTTG) | 0
CTGGAAACATGGACCGGTTTTCCCGGTAATCCGTATTTGCA (site CTGGAAACTAG) | 0
CTGGAAACATGGACCGGTTTTCCCGGTAATCCGTATTTGCA (site CTGGAAACTCG) | 0.843
CTGGAAACATGGACCGGTTTTCCCGGTAATCCGTATTTGCA (site CTGGAAACTGG) | 0
CTGGAAACATGGACCGGTTTTCCCGGTAATCCGTATTTGCA (site CTGGAAACTTA) | 1.34
CTGGAAACATGGACCGGTTTTCCCGGTAATCCGTATTTGCA (site CTGGAAACTTC) | 0
CTGGAAACATGGACCGGTTTTCCCGGTAATCCGTATTTGCA (site CTGGAAACTTG) | 2.2
CTGGAAACATGGACCGGTTTTCCCGGTAATCCGTATTTGCA (site CTGGAAACTTT) | 2.16
CTGGAAACATGGACCGGTTTTCCCGGTAATCCGTATTTGCA (site CTGGAACCTTG) | 0.0058
CTGGAAACATGGACCGGTTTTCCCGGTAATCCGTATTTGCA (site CTGGAAGCTTG) | 1.51

Sequence | recombinant UMI read abundance (log10)
CTGGAAACATGGACCGGTTTTCCCGGTAATCCGTATTTGCA (site CTGGAATCTTG) | 1.21
CTGGAAACATGGACCGGTTTTCCCGGTAATCCGTATTTGCA (site CTGGACACTTG) | 0.00329
CTGGAAACATGGACCGGTTTTCCCGGTAATCCGTATTTGCA (site CTGGAGACTTG) | 1.43
CTGGAAACATGGACCGGTTTTCCCGGTAATCCGTATTTGCA (site CTGGATACTTG) | 0.526
CTGGAAACATGGACCGGTTTTCCCGGTAATCCGTATTTGCA (site CTGGCAACTTG) | 0.416
CTGGAAACATGGACCGGTTTTCCCGGTAATCCGTATTTGCA (site CTGGGAACTTG) | 0.596
CTGGAAACATGGACCGGTTTTCCCGGTAATCCGTATTTGCA (site CTGGTAACTTG) | 0.00624
CTGGAAACATGGACCGGTTTTCCCGGTAATCCGTATTTGCA (site CTGTAAACTTG) | 0.123
CTGGAAACATGGACCGGTTTTCCCGGTAATCCGTATTTGCA (site CTTGAAACTTG) | 0.578
CTGGAAACATGGACCGGTTTTCCCGGTAATCCGTATTTGCA (site GTGGAAACTTG) | 0.00967
CTGGAAACATGGACCGGTTTTCCCGGTAATCCGTATTTGCA (site TTGGAAACTTG) | 0
CTGGAAACATGGACCGGTTTTCCCGGTAATCCGTATTTGCC (site CTGGAAACTAG) | 0
CTGGAAACATGGACCGGTTTTCCCGGTAATCCGTATTTGCC (site CTGGAAACTCG) | 0
CTGGAAACATGGACCGGTTTTCCCGGTAATCCGTATTTGCC (site CTGGAAACTGG) | 0
CTGGAAACATGGACCGGTTTTCCCGGTAATCCGTATTTGCC (site CTGGAAACTTG) | 0.22
CTGGAAACATGGACCGGTTTTCCCGGTAATCCGTATTTGCG (site CTGGAAACTAG) | 0
CTGGAAACATGGACCGGTTTTCCCGGTAATCCGTATTTGCG (site CTGGAAACTCG) | 2.37
CTGGAAACATGGACCGGTTTTCCCGGTAATCCGTATTTGCG (site CTGGAAACTGG) | 0
CTGGAAACATGGACCGGTTTTCCCGGTAATCCGTATTTGCG (site CTGGAAACTTG) | 1.72
